Assay results from patent US6384055B1, “Utilization of derivatives of tetrahydropyridines (or 4-hydroxypiperidines)-butylazols in the preparation of a medicament for the treatment of pain” (Laboratorios Del Dr. Esteves, S.A., priority 1998, dated 2002).

Experiments:
Swiss albino mice [1] = assay: assay of contortions induced by phenylbenzoquinone; assay type: in vivo; conditions: for ED50: Mus musculus
Swiss albino mice [2] = assay: hot-plate assay; assay type: in vivo; conditions: Mus musculus, 0.5 h, sc, hot-plate 55° C., 30 minutes after administration, read-out: ED-50 hot-plate assay (55° C.)
Method: The product under study was administered s.c. or i.p. and 30 minutes later the analgesic effect was registered. For this the animals were placed on a metallic surface kept at 50° C. or 55° C. and the time registered (latency) until the licked their hind legs and a jump. The analgesic activity was calculated at each dose, comparing the potency of the treated group with the control group. Using the results obtained the ED-50 was calculated.

[3] = mice, oral route, dose inhibiting by 50% the contortions induced by phenylbenzoquinone i.p. 60 minutes after product
[4] = mice, s.c. route, dose inhibiting by 50% the contortions induced by phenylbenzoquinone i.p. 30 minutes after product

In the case of OC1(c2ccc(Cl)cc2)CCN(CCCCn2cc(Cl)cn2)CC1 [Example 5], the “ED-50 Oral route” value (Swiss albino mice [1]; [3]) is reported as 20 mg/kg and the “ED-50 S.C. route” value (Swiss albino mice [1]; [4]) is reported as 28 mg/kg.

In the case of Cc1c(N(C)CS(=O)(=O)[O-])c(=O)n(-c2ccccc2)n1C.[Na+] [Dipirone, dipirone], the “ED-50 Oral route” value (Swiss albino mice [1]; [3]) is reported as 223 mg/kg and the “ED-50 S.C. route” value (Swiss albino mice [1]; [4]) is reported as 24 mg/kg.

With CC(=O)Oc1ccccc1C(=O)O [Aspirin, aspirin] the ED50 (Swiss albino mice [1]; 0.5 h, mice, s.c. route, dose inhibiting by 50% the contortions induced by phenylbenzoquinone i.p. 30 minutes after product, read-out: ED-50 S.C. route) was 80 mg/kg and the ED50 (Swiss albino mice [1]; 1 h, mice, oral route, dose inhibiting by 50% the contortions induced by phenylbenzoquinone i.p. 60 minutes after product, read-out: ED-50 Oral route) was 100 mg/kg.

For CN1CC[C@]23c4c5ccc(O)c4O[C@H]2[C@@H](O)C=C[C@H]3[C@H]1C5 [Morfine, morphine], the ED50 (Swiss albino mice [1]; 0.5 h, read-out: ED-50 S.C. route) was 1 mg/kg, the ED50 (Swiss albino mice [1]; 1 h, read-out: ED-50 Oral route) was 4 mg/kg and the ED50 (Swiss albino mice [2]) was 2 mg/kg.
